Publication PMC9847679, “The anti-breast cancer stem cell properties of gold(I)-non-steroidal anti-inflammatory drug complexes” (Chemical Science, 2022)

Key:
[1] = Tissue biodistribution of gold; assay type: in vivo, BALB/c mice; conditions: 4T1-bearing mice after 16 days treatment, 10 mg kg−1 IP
Procedure: tumour-size and body-weight measurements were performed three days a week, and the mice were euthanised after 16 days (n = 5 for 1 and n = 5 for vehicle control).
Tissue biodistribution of 1. Following the treatment o f mice with 1 for 16 days, each tissue (heart, lung, liver, spleen, kidney, and tumo ur) was excised from euthanised mice (n = 3).
The tissues were boiled for 5 h at 60 °C with 70% nitric acid (0.5 mL) , and then boiled again at 60 °C for 10 min with 35% hydrogen peroxide (0.5 mL). The solutions turned yellow, and were diluted as needed to measure the gold content using a Graphite Furnace Atomic Absorption Spectrometer. Before measuring all samples, th e standard solution curves were […]
(§1) Hematoxylin and eosin staining. The mice used in the in vivo comparative experiment of 1 and the vehicle control were sacrificed at day 16 post tumo ur cells (4T1) injection. The tissues (liver, kidney, and tumour) were fixed in freshly prepared paraformaldehyde (4% in PBS) for 24 h and processed for paraffin sectioning. Tissue sections of 5 µm were stained with hematoxylin and eosin and used for histological examination. A total of 3 sections per tissue (spanning the full depth of the tissue) were examined and photographed using a Nikon

[2] = system: murine 4T1 triple-negative breast cancer model; assay: Antitumour efficacy in murine 4T1 triple-negative breast cancer model; assay type: in vivo, BALB/c mice
Procedure: Mice. Female, 5-week-old BALB/c mice were purchased from Charles River Laboratories (Wilmington, MA). All mice were quarantined for one week before use and kept in micro - isolator cages (four mice per cage) in a temperature - and humidity-controlled environment a s per the Division of Laboratory Animal Research (DLAR) of University of Kentucky. All mice were maintained in a pathogen-free environment under the care of DLAR of University of Kentucky. Our study was performed in compliance with the NIH guidelines (NIH Publication No. 85-23 Rev. 1985) for the care and use of laboratory animals and all experimental procedures were monitored and approved by the Institutional Animal Care and Use Committee (IACUC) of University of Kentucky (USA).
In vivo studies with 1. Ten female BALB/c mice (5 weeks) were received from Charles River Laboratories (Wilmington, MA). […]
being implanted with 4T1 cells (1 million) subcutaneously on their right flank. Three days post-implantation, the mice were administered with 10 mg/kg of 1 intraperitoneally (IP), 0.1 mL/mouse formulated as 1% DMSO, 10% Kolliphor, and 89% PBS. The control group was injected with a PBS solution containing 1% DMSO and […]. The injection of 1, and […]
tumour-size and body-weight measurements were performed three days a week, and the mice were euthanised after 16 days (n = 5 for 1 and n = 5 for vehicle control). […]
as §1

[3] = system: HMLER-shEcad cells; assay: Monolayer cytotoxicity (MTT assay), HMLER-shEcad cells; assay type: cell-based, human; conditions: 72 h incubation, MTT
Text: Cell Lines and Cell Culture Conditions. The human mammary epithelial HMLER and HMLER-shEcad cell lines were kindly donated by Prof. R. A. Weinberg (Whitehead Institute, MIT). The human epithelial breast MCF10A, breast adenocarcinoma MDA-MB-231 and MDA-MB-468, murine epithelial breast 4T1, and embryonic kidney HEK 293 cell lines were acquired from American Type Culture Collection (ATCC, Manassas, VA, USA).
HMLER, HMLER-shEcad, and MCF10A cells were maintained in Mammary Epithelial Cell Growth Medium (MEGM) with supplements and growth factors (BPE, hydrocortisone, hEGF, insulin, and gentamicin/amphotericin-B). MDA-MB-231, MDA-MB-468, 4T1, and HEK 293 cells were maintained in Dulbecco's Modified Eagle's Medium (DMEM) supplemented with fetal bovine serum (10 %) and penicillin/streptomycin (1 %). The cells were grown at 310 K in a humidified atmosphere containing 5% CO2.
Monolayer Cytotoxicity Studies. Exponentially growing cells were seeded at a density of approximately 5 × 10^3 cells per well in 96-well flat-bottomed microplates and allowed to attach for 24 h prior to addition of compounds. Various concentrations of the test compounds (0.0004-100 μM) were added and incubated for 72 h at 37 °C (total volume 200 μl). Stock solutions of the compounds were prepared as 10 mM DMSO solutions and diluted using cell […]
media. The final concentration of DMSO in each well was ≤1 %. After 72 h, 20 μl of MTT (4 mg mL-1 in PBS) was added to each well and the plates incubated for an additional 4 h at 37 °C. The media/MTT mixture was eliminated and DMSO (100 μl per well) was added to dissolve the formazan precipitates. The optical density was measured at 550 nm using a 96-well multiscanner autoreader. Absorbance values were normalised to (DMSO-containing) control wells and plotted as concentration of test compound versus % cell viability. IC50 values were interpolated from the resulting dose dependent curves. The reported IC50 values are the average of three independent experiments (n = 18). […]
After incubation for 16 […]
h, the fluorescence of the solutions was read at 590 nm (λex = 560 nm). Viable mammospheres reduce the amount of the oxidised TOX8 form (blue) and concurrently increase the amount of the fluorescent TOX8 intermediate (red), indicating the degree of mammosphere cytotoxicity caused by the test compound. […]
Cellular Uptake. To measure the cellular uptake of 1-3 about 1 million HMLER-shEcad cells were treated with 1-3 (0.25 μM) at 37 °C for 24 h. After incubation, the media was removed, the cells were washed with PBS (2 mL × 3) and harvested. The number of cells was counted at this stage, using a haemocytometer. This mitigates any cell death induced by 1-3 at the administered concentration and experimental cell loss. The cellular pellets were dissolved in 65% HNO3 (250 µL) overnight. A cellular pellet of HMLER-shEcad cells treated with 1 was also used to determine the gold content in the nuclear, cytoplasmic and membrane fractions. The Thermo Scientific NE-PER Nuclear and Cytoplasmic Extraction Kit was used to extract and separate the nuclear, cytoplasmic and membrane fractions. The fractions were dissolved in 65% HNO3 (250 µL final volume) overnight. All samples were diluted 17-fold with water and analysed using inductively coupled plasma mass spectrometry (ICP-MS, Thermo Scientific ICAP-Qc quadrupole ICP mass spectrometer). Gold levels are expressed as mass of Au (ng) per million cells. Results are presented as the mean of four determinations for each data point.
Intracellular ROS Assay. […]

[4] = 10 mg kg−1 intraperitoneally three times a week, 16 days, vs vehicle
[5] = day 16, compared to control group

COc1ccc2c(c1)c(CC(=O)[O][Au][PH](c1ccccc1)(c1ccccc1)c1ccccc1)c(C)n2C(=O)c1ccc(Cl)cc1 [complex 1]
gold content in the kidney [1]: 15 μg g^−1 of tissue
gold content in tumour tissue [1]: 3 μg g^−1 of tissue
body weight [2, 4]: maintained their body weight
tumour growth [2, 4]: significant tumour growth inhibition
cellularity in kidney or liver tissue (H&E histology) [2, 5]: no alteration to cellularity
cellularity in tumour tissue (H&E histology) [2, 5]: Reduced cellularity
IC50 [3]: 56 ± 1 nM
